These results are taken from article PMC10002517, “Inhibition of Transglutaminase 2 as a Therapeutic Strategy in Celiac Disease—In Vitro Studies in Intestinal Cells and Duodenal Biopsies” (International Journal of Molecular Sciences, 2023).

The test system of one series is T-cell stimulation. Particulars: cited from earlier work. An excerpt:
Even though our results underline the significance of TG2 inhibition, further research is needed to investigate the effects of those inhibitors on gliadin-induced inflammation. In recent studies, these inflammatory mechanisms were only partially mitigated by inhibition of TG2.

In series [1] the test system is gliadin peptide uptake (P31-43 and P57-68). Conditions: cited from earlier work. An excerpt: Since TG2 is expressed on the surface of epithelial cells and plays a role in transcytosis, we aimed to investigate the effect of TG2 inhibitors on the epithelial uptake of gliadin peptides. First, we confirmed the results from Caputo et al. and Zimmermann et al. by showing that the translocation of P31-43, but not of P56-88, was inhibited by the endocytosis inhibitor MBCD [21, 37].

The subject of series [2] is transepithelial passage of P31-43 in Caco-2 cells. Briefly: Transepithelial transport of promofluor-conjugated gliadin peptide P31-43 across Caco-2 monolayers (fluorometry). The format is cell-based, human. Particulars: 3 h. How it is done:
(§1) Transepithelial transport of immunogenic and toxic gliadin peptides were examined in Caco-2 cells 7–14 days after confluency. Caco-2 cells were seeded on semi-permeable transwell supports (ThinCert, culture surface: 33.6 mm², pore size: 0.4 µm) in 24-well plates (Greiner Bio One, Pleidelsheim, Germany). Prior to the transport experiments, the integrity of the cell monolayer was tested by measuring the transepithelial electric resistance (TEER) using a volt-ohm meter (Millipore, Schwalbach, Germany). Monolayers with insufficient TEER (<350 Ω/cm^2) were omitted. The synthesis and purification of promofluor-conjugated gliadin peptides were described elsewhere. Cells were either incubated with the immunogenic peptide P56-88 ([…]) or the toxic gliadin peptide P31-43 (LGQQQPFPPQQPY), 7 µg/mL each, in Hank’s balanced salt solution (HBSS) for 3 h. To investigate the role of TG2 on the transport of gliadin peptides, incubation was performed in the presence of ERW1041 and PX-12. After 3 h, basal and apical supernatants were collected, and the relative fluorescence of the basal compartment was quantified using a FLUOstar Optima (BMG Labtech) microplate reader. Background subtraction was performed against conditions, where no labeled peptides were used. Normalization was performed against conditions, where no inhibitors were used.
(In general: Caco-2 cells form a polarised layer with tight junctions and transporters.)

Series [3] deals with transepithelial passage of P56-88 in Caco-2 cells. Briefly: Transepithelial transport of promofluor-conjugated gliadin peptide P56-88 across Caco-2 monolayers (fluorometry). The format is cell-based, human. Conditions: 3 h. How it is done: as §1
The subject of series [4] is uptake of P56-88 by Caco-2 cells. Briefly: Epithelial uptake of P56-88 by Caco-2 cells (confocal microscopy). Conditions: 1 h incubation; z-stack imaging and 3D reconstruction. The format is cell-based, human. As for the experimental part:
For microscopic evaluation, Caco-2 cells were seeded on polymer-covered µ-slides (80826, Ibidi) and incubated for 1 h with labeled gliadin peptides in the presence of TG2 inhibitors. After three washes with PBS, cells were fixed with 4% paraformaldehyde. Nuclear staining was performed for 10 min using Hoechst fluorescent stain (1:1000 in PBS). Imaging was done using a confocal laser scanning microscope (TE2000-E, Nikon) and a 60× Plan Apo (NA 1.41) immersion oil objective. Processing of z-stacks, including 3D reconstruction, was performed using ImageJ [46]. For quantitation, z-stack images were taken with the same microscope settings. Using ImageJ, maximum intensity projections were obtained of the z-stack images, and the fluorescence intensity was measured within the whole image.

The next series concerns TG2 expression. Briefly: Western blotting of TG2 protein expression in Caco-2 cells. The format is cell-based, human. Particulars: IFN-γ 48 h; normalized to GAPDH; n = 4. How it is done: […] First, cells were washed two times with cold PBS, scraped off the plate and centrifuged (60 s at 14,100× g). The cell pellet was resuspended in RIPA lysis buffer supplemented with phenylmethylsulfonyl fluoride, protease inhibitor and sodium orthovanadate (1% each), incubated for 20 min on ice and centrifuged (20 min at 14,100 gat 4 °C) afterwards. Supernatant was collected and cell debris was discarded. Protein quantitation was performed using the Pierce BCA protein assay kit (Thermo Fisher Scientific). After denaturation in Laemmli buffer containing 2-mercaptoethanol for 5 min at 95 °C, 10 µg of the protein extract per lane were loaded on a 12% SDS-gel. Electrophoresis was done for 1 h at 40 mA. Protein transfer onto PVDF membrane (0.2 µm pore size) was done using a Transblot Turbo system (Bio-Rad Laboratories) for 30 min (25 V, 1 A). The membrane was blocked for 1 h with 5% non-fat dry milk in PBS + […]. The primary antibodies (anti-TG2 (1:500): CUB7402, Abcam, Cambridge, UK; anti-GAPDH (1:5000): MAB374, Merck Millipore, Darmstadt, Germany) were incubated at 4 °C in blocking buffer overnight. […] Image processing and quantitation were performed using a ChemiDoc XRS+ imager and Image Lab software (BioRad Laboratories, Feldkirchen, Germany).

The target in series [5] is T1, TG2 in Caco-2 cell lysates (Homo sapiens, UniProt P21980).
T1 construct: endogenous in cells; host or cells: Caco-2 (differentiated; IFN-γ-stimulated in the monolayer assay)
T1 sequence (P21980 1-687): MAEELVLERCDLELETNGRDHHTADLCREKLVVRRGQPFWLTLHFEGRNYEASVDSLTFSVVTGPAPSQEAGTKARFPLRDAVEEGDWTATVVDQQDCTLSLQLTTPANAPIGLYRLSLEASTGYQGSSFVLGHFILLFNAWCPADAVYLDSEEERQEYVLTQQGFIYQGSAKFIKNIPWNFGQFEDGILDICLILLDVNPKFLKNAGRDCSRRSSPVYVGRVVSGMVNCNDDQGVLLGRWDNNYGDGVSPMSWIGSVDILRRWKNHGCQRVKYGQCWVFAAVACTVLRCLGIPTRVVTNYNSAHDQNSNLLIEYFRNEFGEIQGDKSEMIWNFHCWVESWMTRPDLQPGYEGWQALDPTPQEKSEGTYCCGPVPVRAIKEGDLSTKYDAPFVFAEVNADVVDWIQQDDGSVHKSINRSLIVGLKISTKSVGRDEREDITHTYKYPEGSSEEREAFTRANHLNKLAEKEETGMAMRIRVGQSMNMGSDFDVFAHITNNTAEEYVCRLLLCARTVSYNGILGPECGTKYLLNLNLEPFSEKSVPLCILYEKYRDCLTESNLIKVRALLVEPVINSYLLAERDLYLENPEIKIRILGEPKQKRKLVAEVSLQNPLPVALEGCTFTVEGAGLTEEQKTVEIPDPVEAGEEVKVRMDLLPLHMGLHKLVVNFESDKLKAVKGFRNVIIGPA
In words: Transglutaminase activity in Caco-2 whole cell lysates (5BP cross-linking). Particulars: mean ± SD, n = 3. The class given is biochemical. How it is done:
The method to investigate TG2 activity from whole cell lysates was adapted from Lin et al.. In brief, 20 µg protein per cavity on the 96-well plate were incubated in 50 mM Tris, 1 mM EDTA, 5 mM calcium chloride (pH 7.5) buffer in the presence of 500 µM 5BP (5-biotinamidopentylamine, Thermo Fisher Scientific, Langenselbold, Germany) for the indicated time. After incubation, the plate was washed three times with PBS + 0.05% Tween. After blocking with 5% BSA in PBS for 1 h, the plate was incubated with 2 µg/mL streptavidin-Alexa Fluor 488 (Thermo Fisher Scientific) in 5% BSA. After 3 washing steps with PBS + 0.05% Tween, fluorometric evaluation was performed using a Clariostar Plus (BMG Labtech) microplate reader (no well scan mode, excitation 488 nm, emission 535 nm, fixed gain: 2000).

The target of series [6] is T2, TG2 in the intestinal lamina propria (Homo sapiens, UniProt P21980).
T2 construct: from tissue; host or cells: duodenal biopsies from celiac disease patients (unfixed 400 nm cryosections, lamina propria)
T2 sequence (P21980 1-687): T1 sequence (P21980 1-687)
In words: TG2 activity in cryosections of duodenal biopsies from CD patients (5BP, confocal microscopy). Conditions: increasing amounts of DTT in the incubation buffer. The format is biochemical. As for the experimental part:
For immunofluorescence microscopic investigation of transglutaminase activity, only biopsies with minor macroscopic inflammatory signs were used. After endoscopy, biopsies were immediately washed three times in PBS and cryopreserved in polyvinylpyrrolidone sucrose at 4 °C overnight. Biopsies were mounted on specimen holders using Tissue-Tek O.C.T (Sakura Finetek, Staufen im Breisgau, Germany) compound and frozen in liquid nitrogen. For evaluation of transglutaminase activity by the post-embedding procedure, 400 nm cryosections were obtained using a cryo-ultramicrotome (Leica EM UC6, Leica, Wetzlar, Germany) and mounted on class cover slides. After three brief washes with PBS, tissue sections were incubated with the indicated concentrations of the inhibitors for 1 h in tris buffer. Then, the TG2 substrate 5BP was incubated for 1 h at 37 °C in tris buffer containing DTT at the indicated concentration. Slides were washed three times in PBS, fixed in 4% paraformaldehyde (10 min), permeabilized with 0.5% Triton (10 min) and incubated with blocking solution (0.1% cold water fish skin gelatin + 5% BSA + 5% goat serum, 10 min). Afterwards, a rabbit polyclonal antibody directed against human TG2 (Kan5, kindly provided by Dr T. Mothes, Institute of Laboratory Medicine, University Hospital Leipzig, Germany) was applied at 1:200 dilution in blocking solution overnight at 4 °C. After three washing steps (each 5 min) with PBS, Alexa Fluor-555-conjugated secondary antibody (goat-anti-rabbit, 1:200, Thermo Fisher Scientific) and Alexa Fluor-488-conjugated streptavidin (2 µg/mL, Thermo Fisher Scientific) were incubated at room temperature in the dark for 1 h. After three washes with PBS, samples were covered in ProLong Gold antifade mountant (Thermo Fisher Scientific) and sealed with clear nail polish. Sealed slides were stored in the dark at 4 °C until microscopy.
Imaging was done using a confocal laser scanning microscope (TE2000-E, Nikon, Langen, Germany) and a 60× Plan Apo (NA 1.41) immersion oil objective. The detailed acquisition settings and the corresponding macro (Image J [46]) for image processing can be accessed in the Supplementary Materials methods (S1). Five images per patient where quantified. For quantitation, mean fluorescence intensity of TG2 activity (488 nm channel) was normalized to TG2 expression (555 nm channel) within the intestinal lamina propria.

Series [7] addresses T3, extracellular TG2 on Caco-2 cells (Homo sapiens, UniProt P21980).
T3 construct: endogenous in cells; host or cells: Caco-2 (differentiated; IFN-γ-stimulated in the monolayer assay)
T3 sequence (P21980 1-687): T1 sequence (P21980 1-687)
In words: Extracellular TG2 activity on confluent Caco-2 cell monolayers (5BP cross-linking). Particulars: for TG2-mediated crosslinking: 1 mM DTT, 3 h with 5BP, mean ± SD, n = 4. The class given is cell-based. As for the experimental part: The method was adapted from Yi et al.. To induce TG2 expression, Caco-2 cells were stimulated with IFN-γ 1000 IU/mL for 48 h. Then, cells were washed three times with warm PBS and incubated with the substrate 5BP for 3 h at 37 °C in 50 mM Tris and 1 mM EDTA (pH 7.5). The substances ERW1041, PX-12 and DTT were added to this solution when indicated. After incubation, cells were washed three times with PBS, fixed with 4% paraformaldehyde for 10 min and blocked with 5% BSA in PBS at 4 °C overnight. Then, cells were incubated at room temperature with streptavidin-Alexa488 (Thermo Scientific, 4 µg/mL) in 5% BSA in the dark for 1 h, followed by three washes with PBS. Fluorometric quantitation was conducted using a FLUOstar Optima microplate reader (BMG Labtech, filter settings: excitation 485 nm, emission 525 nm). Manual gain adjustment was performed, setting the well with the most intense signal as 95%. In all experiments, data were background subtracted against a control without 5BP substrate.

Setting [8] is: Caco-2 monolayer on transwell, A-B, 7 µg/mL in HBSS, TEER >= 350 Ω/cm^2, fluorometry.

For the molecule `NCCSSCCN` [cystamine], the “CD patients in whom T-cell stimulation was prevented” value in the series with T-cell stimulation is reported as 50%. Further, the “effect on gliadin peptide uptake (P31-43 and P57-68)” value in [1] is on record as “did not show an effect”.

Regarding LGQQQPFPPQQPY [P31-43], the “translocation from the apical to the basal compartment” value in series [2] (setting [8]) is “detected in the basal compartment”.

As for “LQLQPFPQPQLPYPQPQLPYPQPQLPYPQPQPF [P56-88]”, in series [3] (setting [8]), the “translocation from the apical to the basal compartment” value is listed as “detected in the basal compartment”. Further, in series [4], the “cellular localization of the peptide” value is “localized in the supranuclear cell region”.

In the case of “IFN-γ: key cytokine of the Th1-driven inflammation in CD, recognized inducer of TG2 expression”, the “TG2 expression on the protein level” value in the series with TG2 expression is “almost sevenfold increase”.

As to methyl-β-cyclodextrin [MBCD], the “transepithelial passage of P31-43 (relative basal fluorescence)” value in series [2] (in the presence of MBCD, 7 µg/mL peptide apical in HBSS, normalized to no inhibitor, mean ± SD, n = 3) was determined as 58 ± 7%. Further, the “transepithelial transport of P56-88 (relative basal fluorescence)” value in [3] (in the presence of MBCD, 7 µg/mL peptide apical in HBSS, normalized to no inhibitor, n.s., mean ± SD, n = 3) amounted to 89 ± 13%.

On to `O[C@@H](CS)[C@@H](O)CS` (racemic) [DTT, dithiothreitol], for which the “TG2 activity in Caco-2 cell lysates” value in series [5] (protein lysate treated with 10 mM DTT for 1 h) is given as 395 ± 21%. Also, the “effect of DTT on TG2 activity in cryopreserved tissue sections” value in series [6] was “enhanced TG2 activity in the cryopreserved tissue in a dose-dependent manner”. The TG2-mediated crosslinking in series [7] (IFN-γ-stimulated Caco-2 cells, not significant) came to 123 ± 24%; in [7] (non-stimulated Caco-2 cells) it was 141 ± 17%.

`CN(C)c1cccc2c(S(=O)(=O)NCCCCCN)cccc12` [monodansyl cadaverine]: in [1], the “effect on gliadin peptide uptake (P31-43 and P57-68)” value was “did not show an effect”.

B1: IFN-γ: key cytokine of the Th1-driven inflammation in CD, recognized inducer of TG2 expression (protein, UniProt P01579 24-161, looked up)
Interferon gamma: QDPYVKEAENLKKYFNAGHSDVADNGTLFLGILKNWKEESDRKIMQSQIVSFYFKLFKNFKDDQSIQKSVETIKEDMNVKFFNSNKKKRDDFEKLTNYSVTDLNVQRKAIHELIQVMAELSPAAKTGKRKRSQMLFRG
In the case of B1, the “TG2 activity in Caco-2 cell lysates” value in [5] (Caco-2 cells treated with 500 IU/mL IFN-γ for 48 h) came to 760 ± 259%. Besides, the “increase of extracellular TG2 activity after IFN-γ stimulation” value in [7] (1000 IU/mL IFN-γ, 48 h) was “about 4 times”.
